The results in this text go back to ChEMBL document CHEMBL1132960, “Consensus bioactive conformation of cyclic GnRH antagonists defined by NMR and molecular modeling” (J Med Chem, 2000).

Test [1] is filed under the species Rattus norvegicus. Nature of the test: Number of rats ovulating over total at a dose of 10 ug/rat (2/20). Type of test: functional.
For test [2], the species on record is Rattus norvegicus. As to the kind of experiment: Number of rats ovulating over total at a dose of 2.5 ug/rat (2/8). Format: functional.
Test [3] concerns the target T1, Gonadotropin-releasing hormone receptor (Homo sapiens, UniProt P30968).
T1 sequence (P30968 whole entry): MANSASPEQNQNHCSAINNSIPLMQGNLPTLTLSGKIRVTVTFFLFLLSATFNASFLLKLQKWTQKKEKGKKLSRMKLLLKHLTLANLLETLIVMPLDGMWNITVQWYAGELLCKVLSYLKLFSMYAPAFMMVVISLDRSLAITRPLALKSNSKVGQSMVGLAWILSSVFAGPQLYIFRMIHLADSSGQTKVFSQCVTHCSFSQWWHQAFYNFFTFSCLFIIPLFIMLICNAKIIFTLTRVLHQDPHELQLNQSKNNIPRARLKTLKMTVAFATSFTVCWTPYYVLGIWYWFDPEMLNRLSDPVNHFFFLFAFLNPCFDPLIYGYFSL
Nature of the test: Binding affinity towards Gonadotropin-releasing hormone receptor.

For test [4], the species on record is Rattus norvegicus. Nature of the test: Number of rats ovulating over total at a dose of 5 ug/rat (2/8). Format: functional.
For test [5], the species on record is Rattus norvegicus. As to the kind of experiment: Number of rats ovulating over total at a dose of 5 ug/rat (3/20). Format: functional.
The species entered for test [6] is Rattus norvegicus. Nature of the test: Number of rats ovulating over total at a dose of 1000 ug/rat (5/8). Format: functional.

pKi: −log10 of the molar value. Where a SMILES comes first, the peptide text is derived from it. Bridges are numbered along the chain shown (N, C = ends). [ ]: non-standard residue; d: D form. dPhe(4-Cl) = N[C@H](Cc1ccc(Cl)cc1)C(=O)O; d2Nal = N[C@H](Cc1ccc2ccccc2c1)C(=O)O; d3Pal = N[C@H](Cc1cccnc1)C(=O)O; NMeL = CN[C@@H](CC(C)C)C(=O)O; ΔPro = O=C(O)[C@@H]1C=CCN1; Dab = NCC[C@H](N)C(=O)O; Dap = NC[C@H](N)C(=O)O; βAla = NCCC(=O)O

For `CC(=O)N1CC=C[C@H]1C(=O)N[C@H](Cc1ccc(F)cc1)C(=O)N[C@H](Cc1c[nH]c2ccccc12)C(=O)N[C@H]1CC(=O)NC[C@@H](C(N)=O)NC(=O)[C@@H]2CCCN2C(=O)[C@H](CCCN=C(N)N)NC(=O)[C@H](CC(C)C)NC(=O)[C@@H](Cc2ccc3ccccc3c2)NC(=O)[C@H](Cc2ccc(O)cc2)NC1=O`, the No. of rats in the test listed under Rattus norvegicus [1] amounted to 2.
On to `CC(=O)N[C@H]1CCC(=O)NCC(=O)NCC[C@@H]2NC(=O)[C@H](CC(=O)NC[C@@H](C(N)=O)NC(=O)[C@@H]3CCCN3C(=O)[C@H](CCCN=C(N)N)NC(=O)[C@H](CC(C)C)NC(=O)[C@@H](Cc3ccc4ccccc4c3)NC2=O)NC(=O)[C@@H](Cc2c[nH]c3ccccc23)NC(=O)[C@@H](Cc2ccc(Cl)cc2)NC1=O`, for which, in the test listed under Rattus norvegicus [2], the No. of rats amounted to 2.
Turning to `CC(=O)N[C@H](Cc1ccc2ccccc2c1)C(=O)N[C@H](Cc1ccc(Cl)cc1)C(=O)N[C@H](Cc1cccnc1)C(=O)N[C@H]1CC(=O)NC[C@@H](C(N)=O)NC(=O)[C@@H]2CCCN2C(=O)[C@@H]2CCNC(=O)CNC(=O)CC[C@H](NC1=O)C(=O)N[C@H](CCCN=C(N)N)C(=O)N[C@@H](CC(C)C)C(=O)N2` (Ac-[d2Nal][dPhe(4-Cl)][d3Pal]DE[dR]L[Dab]P[Dap]-NH2; lactam 4-10; linker 5-8 via G) [listing 1 of 2 here], the pKi (in general, the negative decadic logarithm of the Ki, by convention in mol/L) in test [3] was 9.85.
Turning to `CC(=O)N[C@H](Cc1ccc2ccccc2c1)C(=O)N[C@H](Cc1ccc(Cl)cc1)C(=O)N[C@H](Cc1cccnc1)C(=O)N[C@H]1CC(=O)NC[C@@H](C(N)=O)NC(=O)[C@@H]2CCCN2C(=O)[C@@H]2CCNC(=O)CNC(=O)CC[C@H](NC1=O)C(=O)N[C@H](CCCN=C(N)N)C(=O)N[C@@H](CC(C)C)C(=O)N2` (Ac-[d2Nal][dPhe(4-Cl)][d3Pal]DE[dR]L[Dab]P[Dap]-NH2; lactam 4-10; linker 5-8 via G) [listing 2 of 2 here], the No. of rats in the test filed under Rattus norvegicus [4] is 2.
Compound `CC(=O)N[C@H](Cc1ccc2ccccc2c1)C(=O)N[C@H](Cc1ccc(Cl)cc1)C(=O)N[C@H](Cc1c[nH]c2ccccc12)C(=O)N[C@H]1CC(=O)NC[C@@H](C(N)=O)NC(=O)[C@@H]2CCCN2C(=O)[C@@H]2CCCCNC(=O)CC[C@H](NC1=O)C(=O)N[C@H](CCCN=C(N)N)C(=O)N[C@@H](CC(C)C)C(=O)N2` (Ac-[d2Nal][dPhe(4-Cl)][dW]DE[dR]LKP[Dap]-NH2; lactam 4-10, 5-8) [listing 1 of 2 here] had a pKi in test [3] of 9.49.
For `CC(=O)N[C@H](Cc1ccc2ccccc2c1)C(=O)N[C@H](Cc1ccc(Cl)cc1)C(=O)N[C@H](Cc1c[nH]c2ccccc12)C(=O)N[C@H]1CC(=O)NC[C@@H](C(N)=O)NC(=O)[C@@H]2CCCN2C(=O)[C@@H]2CCCCNC(=O)CC[C@H](NC1=O)C(=O)N[C@H](CCCN=C(N)N)C(=O)N[C@@H](CC(C)C)C(=O)N2` (Ac-[d2Nal][dPhe(4-Cl)][dW]DE[dR]LKP[Dap]-NH2; lactam 4-10, 5-8) [listing 2 of 2 here], the No. of rats in the test listed under Rattus norvegicus [5] worked out at 3.
The compound `CC(C)C[C@H]1C(=O)N[C@@H](CCCN=C(N)N)C(=O)N2CCC[C@H]2C(=O)NCCC(=O)N2CC=C[C@H]2C(=O)N[C@H](Cc2ccc(Cl)cc2)C(=O)N[C@H](Cc2c[nH]c3ccccc23)C(=O)N[C@@H](CO)C(=O)N[C@@H](Cc2ccc(O)cc2)C(=O)N[C@H](Cc2c[nH]c3ccccc23)C(=O)N1C` (cyclo([NMeL]RP[βAla][ΔPro][dPhe(4-Cl)][dW]SY[dW])) showed a No. of rats in the test filed under Rattus norvegicus [6] of 5.
